Like-named read-outs stand apart in the source and are kept apart here. Where only a bound is given, the exact number is not on record here.

The experiment has as its system recombinant NL-Rluc virus. In words: Inhibition of HIV replication (NL-RLuc luciferase reporter virus in MT-2 cells). It counts as cell-based. (In general: In a reporter assay the amount or activity of a reporter protein is the signal.)
Setting [1] is: Human immunodeficiency virus 1, MT2, 120 h, read-out: Activity.
Setting [2] is: Human immunodeficiency virus 1, MT2, 120 h, read-out: EC50 μM.
The mark [3] stands for this setting: read-out: Activity, MT-2 cells infected with NL-RLuc virus, 5 days of incubation, luciferase readout, serum condition not given.

As for `Cc1nc2cc(-c3cccc(-c4ccccc4)c3)nn2c(N2CCOCC2)c1[C@H](OC(C)(C)C)C(=O)O` [Example 44, (S)-2-(2-([1,1′-Biphenyl]-3-yl)-5-methyl-7-morpholinopyrazolo[1,5-a]pyrimidin-6-yl)-2-(tert-butoxy)acetic acid], the EC50 under setting [1] lay within 0.1 to 1 µM.
With `Cc1nc2cc(-c3cccc(-c4ccccc4)c3)nn2c(N2[C@@H]3CC[C@H]2COC3)c1[C@H](OC(C)(C)C)C(=O)O` [Example 45, (S)-2-(2-([1,1′-Biphenyl]-3-yl)-7-((1R,5S)-3-oxa-8-azabicyclo[3.2.1]octan-8-yl)-5-methylpyrazolo[1,5-a]pyrimidin-6-yl)-2-(tert-butoxy)acetic acid], the EC50 by setting is: under setting [1], above 1 µM; under setting [2], 3.14 µM.
With `Cc1nc2cc(-c3cccc(-c4ccccc4)c3)nn2c(N2CCS(=O)(=O)CC2)c1[C@H](OC(C)(C)C)C(=O)O` [Example 46, (S)-2-(2-([1,1′-Biphenyl]-3-yl)-7-(1,1-dioxidothiomorpholino)-5-methylpyrazolo[1,5-a]pyrimidin-6-yl)-2-(tert-butoxy)acetic acid], under setting [1], the EC50 was in the range of 0.1 to 1 µM.
On the same count and under the same terms, to `Cc1nc2cc(-c3cccc(-c4ccccc4)c3)nn2c(N2CCC3(CC2)CC3)c1[C@H](OC(C)(C)C)C(=O)O` [Example 47, (S)-2-(2-([1,1′-Biphenyl]-3-yl)-5-methyl-7-(6-azaspiro[2.5]octan-6-yl)pyrazolo[1,5-a]pyrimidin-6-yl)-2-(tert-butoxy)acetic acid] belongs 0.1 to 1 µM; to `Cc1nc2cc(-c3cccc(-c4ccccc4)c3)nn2c(N2C3CCCC2COC3)c1[C@H](OC(C)(C)C)C(=O)O` [Example 48, (2S)-2-(2-([1,1′-Biphenyl]-3-yl)-7-(3-oxa-9-azabicyclo[3.3.1]nonan-9-yl)-5-methylpyrazolo[1,5-a]pyrimidin-6-yl)-2-(tert-butoxy)acetic acid], above 1 µM; to `Cc1nc2cc(-c3cccc(-c4ccccc4)c3)nn2c(N2CCOC(C)(C)C2)c1[C@H](OC(C)(C)C)C(=O)O` [Example 49, (S)-2-(2-([1,1′-Biphenyl]-3-yl)-7-(2,2-dimethylmorpholino)-5-methylpyrazolo[1,5-a]pyrimidin-6-yl)-2-(tert-butoxy)acetic acid], 0.1 to 1 µM.
As to `Cc1nc2cc(-c3cccc(-c4ccccc4)c3)nn2c(N2C3CCC2CN(C)C3)c1[C@H](OC(C)(C)C)C(=O)O` [Example 50, (S)-2-(2-([1,1′-Biphenyl]-3-yl)-5-methyl-7-((1R,5S)-3-methyl-3,8-diazabicyclo[3.2.4]octan-8-yl)pyrazolo[1,5-a]pyrimidin-6-yl)-2-(tert-butoxy)acetic acid], the EC50 is, setting by setting: under setting [1], above 1 µM; under setting [2], 3.23 µM.
On to `Cc1nc2cc(-c3cccc(-c4ccccc4F)c3)nn2c(N2CCC3(CC2)CC3)c1[C@H](OC(C)(C)C)C(=O)O` [Example 51, (S)-2-(tert-Butoxy)-2-(2-(2′-fluoro-[1,1′-biphenyl]-3-yl)-5-methyl-7-(6-azaspiro[2.5]octan-6-yl)pyrazolo[1,5-a]pyrimidin-6-yl)acetic acid], for which the EC50 under setting [1] was in the range of 0.1 to 1 µM.
Consider `Cc1nc2cc(-c3cccc(-c4ccccc4F)c3)nn2c(N2CCC(C)(C)CC2)c1[C@H](OC(C)(C)C)C(=O)O` [Example 52, (S)-2-(tert-Butoxy)-2-(7-(4,4-dimethylpiperidin-1-yl)-2-(2′-fluoro-[1,1′-biphenyl]-3-yl)-5-methylpyrazolo[1,5-a]pyrimidin-6-yl)acetic acid], for which the EC50 was below 0.1 µM under setting [1] and 0.05 µM under setting [2].
For `Cc1nc2cc(-c3cccc(-c4cccc(F)c4)c3)nn2c(N2CCC3(CC2)CC3)c1[C@H](OC(C)(C)C)C(=O)O` [Example 53, (S)-2-(tert-Butoxy)-2-(2-(3′-fluoro-[1,1′-biphenyl]-3-yl)-5-methyl-7-(6-azaspiro[2.5]octan-6-yl)pyrazolo[1,5-a]pyrimidin-6-yl)acetic acid], the EC50 under setting [1] is 0.1 to 1 µM.
The same measure, in the same setting: to `Cc1nc2cc(-c3cccc(-c4ccc(F)cc4)c3)nn2c(N2CCC3(CC2)CC3)c1[C@H](OC(C)(C)C)C(=O)O` [Example 54, (S)-2-(tert-Butoxy)-2-(2-(4′-fluoro-[1,1′-biphenyl]-3-yl)-5-methyl-7-(6-azaspiro[2.5]octan-6-yl)pyrazolo[1,5-a]pyrimidin-6-yl)acetic acid] belongs 0.1 to 1 µM; to `Cc1nc2cc(-c3cccc(-c4cccc(F)c4)c3)nn2c(N2CCC(C)(C)CC2)c1[C@H](OC(C)(C)C)C(=O)O` [Example 55, (S)-2-(tert-Butoxy)-2-(7-(4,4-dimethylpiperidin-1-yl)-2-(3′-fluoro-[1,1′-biphenyl]-3-yl)-5-methylpyrazolo[1,5-a]pyrimidin-6-yl)acetic acid], 0.1 to 1 µM; to `Cc1nc2cc(-c3cccc(-c4ccc(F)cc4)c3)nn2c(N2CCC(C)(C)CC2)c1[C@H](OC(C)(C)C)C(=O)O` [Example 56, (S)-2-(tert-Butoxy)-2-(7-(4,4-dimethylpiperidin-1-yl)-2-(4′-fluoro-[1,1′-biphenyl]-3-yl)-5-methylpyrazolo[1,5-a]pyrimidin-6-yl)acetic acid], 0.1 to 1 µM.
In the case of `Cc1nc2cc(-c3cccc(-c4ccc5cnn(C)c5c4)c3)nn2c(N2CCC(C)(C)CC2)c1[C@H](OC(C)(C)C)C(=O)O` [Example 57, (S)-2-(tert-Butoxy)-2-(7-(4,4-dimethylpiperidin-1-yl)-5-methyl-2-(3-(1-methyl-1H-indazol-6-yl)phenyl)pyrazolo[1,5-a]pyrimidin-6-yl)acetic acid], the EC50 under setting [1] was below 0.1 µM.
Take `Cc1ccccc1-c1cccc(-c2cc3nc(C)c([C@H](OC(C)(C)C)C(=O)O)c(N4CCC(C)(C)CC4)n3n2)c1` [Example 58, (S)-2-(tert-Butoxy)-2-(7-(4,4-dimethylpiperidin-1-yl)-5-methyl-2-(2′-methyl-[1,1′-biphenyl]-3-yl)pyrazolo[1,5-a]pyrimidin-6-yl)acetic acid]: under setting [1], the EC50 was below 0.1 µM.
As for `COc1ccccc1-c1cccc(-c2cc3nc(C)c([C@H](OC(C)(C)C)C(=O)O)c(N4CCC(C)(C)CC4)n3n2)c1` [Example 59, (S)-2-(tert-Butoxy)-2-(7-(4,4-dimethylpiperidin-1-yl)-2-(2′-methoxy-[1,1′-biphenyl]-3-yl)-5-methylpyrazolo[1,5-a]pyrimidin-6-yl)acetic acid], the EC50 reads like this: under setting [1], below 0.1 µM; under setting [2], 0.015 µM.
Regarding `Cc1nc2cc(-c3cccc(-c4ccc5cnn(C)c5c4)c3)nn2c(N2CCC3(CC2)CC3)c1[C@H](OC(C)(C)C)C(=O)O` [Example 60, (S)-2-(tert-Butoxy)-2-(5-methyl-2-(3-(1-methyl-1H-indazol-6-yl)phenyl)-7-(6-azaspiro[2.5]octan-6-yl)pyrazolo[1,5-a]pyrimidin-6-yl)acetic acid], under setting [1], the EC50 was below 0.1 µM.
Same read-out and setting: next, `Cc1nc2cc(-c3cccc(-c4ccccc4)c3)nn2c(N2CCC3(C)CC3C2)c1[C@H](OC(C)(C)C)C(=O)O` (stereo partly drawn) [Example 61, (2S)-2-(2-([1,1′-Biphenyl]-3-yl)-5-methyl-7-(6-methyl-3-azabicyclo[4.1.0]heptan-3-yl)pyrazolo[1,5-a]pyrimidin-6-yl)-2-(tert-butoxy)acetic acid]: 0.1 to 1 µM.
`Cc1nc2cc(-c3cccc(-c4ccccc4)c3)nn2c(N2CCC3(C)CC3C2)c1[C@H](OC(C)(C)C)C(=O)O` (stereo partly drawn) [Example 62, (2S)-2-(2-([1,1′-Biphenyl]-3-yl)-5-methyl-7-(6-methyl-3-azabicyclo[4.1.0]heptan-3-yl)pyrazolo[1,5-a]pyrimidin-6-yl)-2-(tert-butoxy)acetic acid]: the EC50 runs as follows: under setting [2], 0.42 µM; under setting [3], 0.1 to 1 µM.
Take `Cc1nc2cc(-c3cccc(-c4ccccc4F)c3)nn2c(N2CCC3(C)CC3C2)c1[C@H](OC(C)(C)C)C(=O)O` (stereo partly drawn) [Example 63, (2S)-2-(tert-Butoxy)-2-(2-(2′-fluoro-[1,1′-biphenyl]-3-yl)-5-methyl-7-(6-methyl-3-azabicyclo[4.1.0]heptan-3-yl)pyrazolo[1,5-a]pyrimidin-6-yl)acetic acid]: the EC50 under setting [1] lay within 0.1 to 1 µM.
For the molecule `Cc1nc2cc(-c3cccc(-c4ccccc4F)c3)nn2c(N2CCC3(C)CC3C2)c1[C@H](OC(C)(C)C)C(=O)O` (stereo partly drawn) [Example 64, (2S)-2-(tert-Butoxy)-2-(2-(2′-fluoro-[1,1′-biphenyl]-3-yl)-5-methyl-7-(6-methyl-3-azabicyclo[4.1.0]heptan-3-yl)pyrazolo[1,5-a]pyrimidin-6-yl)acetic acid], the EC50 under setting [3] was 0.1 to 1 µM.
With `Cc1nc2cc(-c3cc(-c4ccccc4)ccn3)nn2c(N2CCC(C)(C)CC2)c1[C@H](OC(C)(C)C)C(=O)O` [Example 65, (S)-2-(tert-Butoxy)-2-(7-(4,4-dimethylpiperidin-1-yl)-5-methyl-2-(4-phenylpyridin-2-yl)pyrazolo[1,5-a]pyrimidin-6-yl)acetic acid], under setting [1], the EC50 is 0.1 to 1 µM.
The same measure, in the same setting: to `Cc1nc2cc(-c3cccc(Oc4ccccc4)c3)nn2c(N2CCC(C)(C)CC2)c1[C@H](OC(C)(C)C)C(=O)O` [Example 66, (S)-2-(tert-Butoxy)-2-(7-(4,4-dimethylpiperidin-1-yl)-5-methyl-2-(3-phenoxyphenyl)pyrazolo[1,5-a]pyrimidin-6-yl)acetic acid] belongs 0.1 to 1 µM; to `Cc1nc2cc(-c3cccc(-c4ccccc4)n3)nn2c(N2CCC(C)(C)CC2)c1[C@H](OC(C)(C)C)C(=O)O` [Example 67, (S)-2-(tert-Butoxy)-2-(7-(4,4-dimethylpiperidin-1-yl)-5-methyl-2-(6-phenylpyridin-2-yl)pyrazolo[1,5-a]pyrimidin-6-yl)acetic acid], 0.1 to 1 µM.
For `Cc1nc2cc(-c3cccc(Oc4ccccc4)n3)nn2c(N2CCC(C)(C)CC2)c1[C@H](OC(C)(C)C)C(=O)O` [Example 68, (S)-2-(tert-Butoxy)-2-(7-(4,4-dimethylpiperidin-1-yl)-5-methyl-2-(6-phenoxypyridin-2-yl)pyrazolo[1,5-a]pyrimidin-6-yl)acetic acid], the EC50 under setting [1] was 0.1 to 1 µM.
Consider `Cc1nc2cc(-c3cccc(OCc4ccccc4)n3)nn2c(N2CCC(C)(C)CC2)c1[C@H](OC(C)(C)C)C(=O)O` [Example 69, (S)-2-(2-(6-(Benzyloxy)pyridin-2-yl)-7-(4,4-dimethylpiperidin-1-yl)-5-methylpyrazolo[1,5-a]pyrimidin-6-yl)-2-(tert-butoxy)acetic acid], for which the EC50 was 0.1 to 1 µM under setting [1] and 0.19 µM under setting [2].

The values are drawn from patent publication US9034882B2, “Inhibitors of human immunodeficiency virus replication” (priority 2012, dated 2015).
